SMILES	melting point [°C]
O=C(O)C1CCCN(C(=O)COC2CCN(C(=O)OCc3ccccc3)CC2)C1 (stereo not given)	102 to 104
CCOC(=O)CCCCCOc1ccc(C(=O)Nc2ccccc2Sc2ccccc2-c2nnn[nH]2)cc1	137 to 138
O=C1CC2(CCCCC2)CN1O	110
CC(C)(C)Sc1c(CC(C)(C)C(=O)O)n(Cc2ccc(Cl)cc2)c2ccc(OCc3cccs3)cc12	204 to 205
COc1nc2c(C)cc(C)cc2c(-c2ccccc2Cl)c1NC(=O)Nc1cccc(C(F)(F)F)c1	151 to 153
CCOC(=O)CCc1ccc(O)c(OCc2ccccc2)c1	60 to 61
Cc1cc2c3c(cc(C)c2[nH]c1=O)CC(C)(CN=[N+]=[N-])O3 (stereo not given)	232 to 234
O=c1[nH]c2ccccc2n1CCCN1CCC(O)(c2ccc(Cl)cc2)CC1	134
CCn1cc(CN(C(=O)C2CCCc3c(O)cccc32)c2ccc(C(C)C)cc2)cn1 (stereo not given)	212 to 215
Cc1c(C)c2c(c(C)c1NC(=O)c1ccc3c(c1)OCO3)C(c1ccc(C(C)C)cc1)C(C)(C)O2 (stereo not given)	165 to 167
Cc1cc(N2CC=C(C(N)=O)CC2)c2c(C)c(C)n(-c3ccc(Cl)cc3Cl)c2n1	265 to 267
OCC(=C(c1ccc(F)cc1)c1ccc(F)cc1)c1nnn(C(c2ccccc2)(c2ccccc2)c2ccccc2)n1	176 to 178
Cc1ccc2cc(NC(=O)c3cccc(SCc4cnccn4)c3)ccc2n1	102 to 105
Cc1[nH]c2ccccc2c1C1=C(c2c(C)[nH]c3ccccc23)C(=O)NC1=O	311 to 313
Cc1cc(C)c2ccc(NC(=O)Nc3ccccc3CCc3cc(C(C)(C)C)c(O)c(C(C)(C)C)c3)nc2n1	235 to 237
Cc1ccnc(NC(=O)c2c(-c3ccc(F)cc3)c(-c3ccc(F)cc3)cn2C(C)C)n1	165 to 166
Cc1ccccc1-c1cc(N2CCOCC2)ncc1C(N)=O	144 to 145
COc1ccc(OC)c(S(=O)(=O)NC(=O)C(C)Oc2cc(-n3nc(C)n(C(F)F)c3=O)c(F)cc2Cl)c1 (stereo not given)	168 to 172
O=C(O)C=Nc1cccc(F)c1C(=O)O	169
O=C(c1ccccc1)N1CCC2CC(O)(c3ccc(F)cc3)CCC2C1 (stereo not given)	84 to 85
COc1cc2c(cc1C=O)C(C)(C)CO2	75 to 76
CN1Cc2c(C#CI)ncn2-c2cccc(Cl)c2C1=O	215 to 216
COc1ccc(-n2cnc3ccc(-c4nnc(SC)o4)cc32)cc1	187 to 188
N#CSc1c(-c2ccccc2)[nH]c(Cl)c1C#N	159

SMILES	melting point [°C]
O=[N+]([O-])c1cc(Cl)cc2c1OC[C@H](CO)O2	83 to 88
COCCOC(=O)c1ccc(-c2ccc(N)cc2)c(C)c1	72 to 75
Cc1cc2c3c(c1N)c(=O)c(C(=O)O)cn3C(C)CC2 (stereo not given)	264 to 266
COc1ccc2cc3c(Cl)nn(CC(C)N(C)C)c3nc2c1 (stereo not given)	78 to 79
CCCCOCCOc1ccc(-c2ccc3c(c2)C=C(C(=O)OC)CCN3c2ccc(S(=O)(=O)NC)cc2)cc1	142 to 146
O=C(C[N+](=O)[O-])c1ccc(-c2ccc(-c3ccc4ccccc4n3)cc2)cc1	160 to 162
CCn1cc(C(=O)NCc2ccc(Cl)cc2)c(=O)c2cc(CCCO)sc21	144 to 146
CC1CCCC(Cc2c[nH]c3c(=O)[nH]c(N)nc23)C1 (stereo not given)	282
COC1Oc2c(c(=O)oc3cc(O)ccc23)C1c1c(O)c2ccc(O)cc2oc1=O (stereo not given)	> 300
NS(=O)(=O)c1nnc(NC(=O)c2cnn3c(C(F)(F)F)cc(-c4ccc(C(F)(F)F)cc4)nc23)s1	280
O=P(Oc1ccc(-c2ccccc2)cc1)(Oc1ccc(-c2ccccc2)cc1)Oc1ccc(-c2ccccc2)cc1	137
Cc1ccc(C2SC(=O)NC2=O)cc1C (stereo not given)	121 to 122
COc1cc2c(Nc3ccc4cn[nH]c4c3)c(C#N)cnc2cc1OCCN(C)C	218 to 219
CN(C(=O)Nc1ccccc1CCc1cc(C(C)(C)C)c(O)c(C(C)(C)C)c1)C1CCN(Cc2ccc(F)cc2)CC1	177 to 178
CCOC(=O)C=Cc1ccc(CCNS(=O)(=O)CCc2ccccc2)cc1	98 to 99
N=C(CSc1nc2cc(Cl)ccc2s1)NO	155 to 157
O=C(CCCCOc1ccc(C2=NCCO2)cc1)c1ccc(Cl)s1	143 to 144
O=C(O)C1=CCN2C=CC=CC2=C1	258 to 262
CN(C)CCN(C(=O)N(C)C)c1nc2ccccc2[nH]1	193 to 195
C=CCCCCCCCCNC(=O)NOCc1ccccc1	53 to 55
O=[N+]([O-])c1cnc(Sc2nnc(O)n2C2CCCCC2)s1	237 to 239
CC12CCC3c4ccc(C(=O)O)cc4CCC3C1CCC2C(=O)c1ccc(F)cc1 (stereo not given)	251 to 254
Cc1oc(-c2ccccc2)nc1COc1ccc(CCl)cc1	108 to 109
O=CC(O)C(O)C(CO)OC1OC(CO)C(O)C(O)C1O (stereo not given)	171 to 176

SMILES	melting point [°C]
NCCc1ncccc1C(N)=O	54
O=C(CN1C(=O)c2ccccc2C1=O)N1CCN(C(=O)c2cc(C(F)(F)F)cc(C(F)(F)F)c2)[C@H](Cc2c[nH]c3ccccc23)C1	> 220
COc1cc(C(C)=O)c(OC)c2c1C(C)(C)CCC2(C)C	97
CC(=O)c1c(N=Cc2ccccc2)c(-c2ccccc2)n(Cc2ccc(Cl)cc2)c1C	136 to 137
CCOC(=O)c1cnc2c(NC(=O)c3c(Cl)cccc3Cl)cccc2c1SCC(=O)O	174 to 175
O=C(O)CSCn1cnnn1	98 to 101
O=C(N[C@H]1CC[C@H](O)CC1)c1cc(F)cnc1Cl	197 to 200
Cc1nnc(Cl)c(-c2c(F)cc(F)cc2F)c1-c1ccc2ccccc2c1	86 to 89
CCOC(=O)c1cc2ccc3c4ccccc4ccc3c2n1C	136 to 138
CN(C)c1ccc2nc3c4ccccc4c(=Nc4ccncc4)cc-3oc2c1	217 to 218
COc1ccc2c(c1)CC[C@@H]1[C@@H]2CC[C@@]2(C)[C@H]1CCC21CC(O)CO1 (stereo not given in full)	95 to 97
O=C(Nc1cc(F)ccc1O)c1cc(Cl)c(O)c(Cl)c1	227 to 229
CCOC(=O)c1cc(Br)c2ccccn2c1=O	156 to 158
CC(=O)c1ccc(C2=CCCCC2)cc1	76 to 77
CCCc1c2c(c3oc(C(=O)OC)cc(=O)c3c1OC)CCCC2	124
CCOC(=O)CC(C)Sc1nnc(S)s1 (stereo not given)	107 to 108
Cc1ccc(CC(=O)N[C@H]2C[C@H](C(=O)O)Nc3cc(Cl)cc(Cl)c32)cc1 (relative stereo)	229 to 230
CCCOc1ccc(CCCOc2nn(C)cc2CC(=O)O)c(Oc2ncc(C(F)(F)F)cc2Cl)c1	95 to 96
[N-]=[N+]=NCCOc1ccc(/C(=C(\c2ccccc2)C(F)(F)F)c2ccccc2)cc1	110 to 118
CCCN(CCN1CCN(c2cccc(Cl)c2Cl)CC1)C1CCc2ncsc2C1 (stereo not given)	104
C#CC12CC3CC(CC(C3)C1)C2	80 to 82
CC(=O)Nc1ccc(C=C(C(=O)C2CC2)C(=O)C2CC2)cc1	166 to 167
